# Data reported in patent US11801231B2, “Oral compositions and methods of use” (3M INNOVATIVE PROPERTIES COMPANY, priority 2017, dated 2023).
# Tested on: Streptococcus mutans biofilm
# Experiment: Biofilm disruption test (modified MBEC assay)
# Format: cell-based, Streptococcus mutans (ATCC 25175)
# Source text: In some embodiments, disclosed compositions can prevent, inhibit, disrupt, disperse, reduce the formation or maintenance of a biofilm in an area contacted with the composition. In some embodiments, a composition can prevent, inhibit, disrupt, disperse, reduce the formation or maintenance of a biofilm in a mouth of a user where the composition was applied to the mouth when compared to a mouth without the composition applied thereto. […] Preventing, inhibiting, disrupting, dispersing, reducing, controlling, or some combination thereof the formation or maintenance of biofilms can be measured using a modified version of the MBEC assay (described in ASTM E2799), which measures disruption of Streptococcus mutans biofilms grown on special pegs in a microtiter plate. […] The biofilm remaining on each peg following treatment is quantified by measuring the amount of fluorescently labeled bacteria that eluted from the pegs at the end of the treatment cycles (see example). […] Decreasing plaque buildup can be measured by a variety of methods in vivo including for example plaque scoring, dyeing of plaque, etc.
# This method utilizes the high throughput MBEC assay system (Innovotech, Calgary, AB Canada). The method evaluates efficacy of a treatment in disrupting biofilm by quantifying the amount of fluorescent-labeled biofilm remaining on MBEC inoculator pegs after exposure to relevant treatment conditions. […]
structure (smiles),measurement,setting,value
"N=C(NCCCCCCNC(=N)NC(=N)Nc1ccc(Cl)cc1)NC(=N)Nc1ccc(Cl)cc1.O=C(O)[C@H](O)[C@@H](O)[C@H](O)[C@H](O)CO.O=C(O)[C@H](O)[C@@H](O)[C@H](O)[C@H](O)CO [0.1% CHG, chlorhexidine gluconate]",Normalized Relative Fluorescence (%),"normalized to PBS negative control in the same plate, low value = more biofilm disruption",3.8%
same,Fluorescence intensity of Alexafluor 488-labeled S. mutans biofilm matrix,"two 1-minute treatment cycles, biofilm eluted from MBEC pegs, ex 488 nm, em 525 nm",1281 a.u.
